{"source": "patent US5650415A", "about": "“Quinoline compounds” (Sugen, Inc., priority 1995, dated 1997)", "origin": "cited, not measured here", "key": {"[1]": {"test_system": "IGF-1R protein tyrosine kinase", "conditions": "Sepp-Lorenzino et al., Abstract, 1994; cited from earlier work"}, "[2]": {"test_system": "human breast cancer cells", "conditions": "Sepp-Lorenzino et al., Abstract, 1994; cited from earlier work"}}, "data": [{"smiles": "COC1C=CC=C(C)C(=O)NC2=CC(=O)C=C(C2=O)C(OC)C(C)CC(OC)C(OC)C(C)C=C(C)C1OC(N)=O", "note": "(centres unmarked) [Herbimycin A]", "values": [{"measurement": "inhibition of IGF-1R protein tyrosine kinase", "setting": "[1]", "value": "inhibit the IGF-1R protein tyrosine kinase"}, {"measurement": "inhibition of cellular proliferation", "setting": "[2]", "value": "inhibit the IGF-1R protein tyrosine kinase and cellular proliferation in human breast cancer cells"}]}]}
